Source: the NIST ThermoML archive (doi:10.1021/je700261b)

Assay: xn = mol fraction of the nth substance listed
Conditions: Liquid

CCCCO [butan-1-ol] + O=C=O
Conditions | mass density [kg/m3]
332.94 K, 21042 kPa, x2 = 0.9698 | 765.72
332.94 K, 21997 kPa, x2 = 0.9698 | 776.05
332.94 K, 22013 kPa, x2 = 0.0251 | 799.22
332.94 K, 22983 kPa, x2 = 0.9698 | 785.85
332.94 K, 23023 kPa, x2 = 0.0251 | 800
332.94 K, 23838 kPa, x2 = 0.9698 | 793.78
332.94 K, 24078 kPa, x2 = 0.0251 | 800.8
332.94 K, 25033 kPa, x2 = 0.0251 | 801.51
332.96 K, 2025 kPa, x2 = 0.0857 | 785.34
332.96 K, 3025 kPa, x2 = 0.0857 | 786.35
332.96 K, 3995 kPa, x2 = 0.0857 | 787.3
332.96 K, 5006 kPa, x2 = 0.0857 | 788.3
332.96 K, 6029 kPa, x2 = 0.0857 | 789.27
332.96 K, 6996 kPa, x2 = 0.0857 | 790.2
332.96 K, 8001 kPa, x2 = 0.0857 | 791.2
332.96 K, 9060 kPa, x2 = 0.0857 | 792.17
332.96 K, 10005 kPa, x2 = 0.0857 | 793.04
332.96 K, 11020 kPa, x2 = 0.0857 | 793.96
332.96 K, 12043 kPa, x2 = 0.0857 | 794.89
332.96 K, 13021 kPa, x2 = 0.0857 | 795.74
332.96 K, 14023 kPa, x2 = 0.0857 | 796.64
332.96 K, 15013 kPa, x2 = 0.0857 | 797.55
332.96 K, 15989 kPa, x2 = 0.0857 | 798.3
332.96 K, 17015 kPa, x2 = 0.0857 | 799.17
332.96 K, 18001 kPa, x2 = 0.0857 | 799.98
332.96 K, 18996 kPa, x2 = 0.0857 | 800.8
332.96 K, 20012 kPa, x2 = 0.0857 | 801.65
332.96 K, 21010 kPa, x2 = 0.0857 | 802.47
332.96 K, 22025 kPa, x2 = 0.0857 | 803.27
332.96 K, 22983 kPa, x2 = 0.0857 | 804.05
332.96 K, 24061 kPa, x2 = 0.0857 | 804.91
332.96 K, 25000 kPa, x2 = 0.0857 | 805.68
332.99 K, 11100 kPa, x2 = 0.4972 | 807.58
332.99 K, 12062 kPa, x2 = 0.4972 | 809.21
332.99 K, 13082 kPa, x2 = 0.4972 | 810.88
332.99 K, 14087 kPa, x2 = 0.8663 | 752.33
332.99 K, 14115 kPa, x2 = 0.4972 | 812.58
332.99 K, 15053 kPa, x2 = 0.8663 | 762.95
332.99 K, 15061 kPa, x2 = 0.4972 | 814.12
332.99 K, 16035 kPa, x2 = 0.4972 | 815.66
332.99 K, 16081 kPa, x2 = 0.8663 | 772.94
332.99 K, 17073 kPa, x2 = 0.8663 | 781.43
332.99 K, 17108 kPa, x2 = 0.4972 | 817.32
332.99 K, 18040 kPa, x2 = 0.4972 | 818.75
332.99 K, 18052 kPa, x2 = 0.8663 | 789.26
332.99 K, 19036 kPa, x2 = 0.4972 | 820.22
332.99 K, 19049 kPa, x2 = 0.8663 | 796.49
332.99 K, 20021 kPa, x2 = 0.8663 | 803.04
332.99 K, 20051 kPa, x2 = 0.4972 | 821.73
332.99 K, 21046 kPa, x2 = 0.8663 | 809.49
332.99 K, 21048 kPa, x2 = 0.4972 | 823.17
332.99 K, 22048 kPa, x2 = 0.4972 | 824.6
332.99 K, 22064 kPa, x2 = 0.8663 | 815.51
332.99 K, 23005 kPa, x2 = 0.8663 | 820.74
332.99 K, 23047 kPa, x2 = 0.4972 | 826
332.99 K, 24018 kPa, x2 = 0.4972 | 827.36
332.99 K, 24028 kPa, x2 = 0.8663 | 826.19
332.99 K, 25056 kPa, x2 = 0.4972 | 828.77
332.99 K, 25067 kPa, x2 = 0.8663 | 831.43
333 K, 12077 kPa, x2 = 0.5965 | 809.05
333 K, 13047 kPa, x2 = 0.5965 | 811.32
333 K, 14101 kPa, x2 = 0.5965 | 813.7
333 K, 15079 kPa, x2 = 0.5965 | 815.86
333 K, 16069 kPa, x2 = 0.5965 | 817.96
333 K, 17045 kPa, x2 = 0.5965 | 820
333 K, 18064 kPa, x2 = 0.5965 | 822.1
333 K, 19045 kPa, x2 = 0.5965 | 824.02
333 K, 20044 kPa, x2 = 0.5965 | 825.94
333 K, 21039 kPa, x2 = 0.5965 | 827.8
333 K, 22043 kPa, x2 = 0.5965 | 829.66
333 K, 23048 kPa, x2 = 0.5965 | 831.48
333 K, 24011 kPa, x2 = 0.5965 | 833.21
333 K, 25086 kPa, x2 = 0.5965 | 835.1
333.08 K, 6035 kPa, x2 = 0.1842 | 792
333.08 K, 7047 kPa, x2 = 0.1842 | 793.11
333.08 K, 8021 kPa, x2 = 0.1842 | 794.16
333.08 K, 9035 kPa, x2 = 0.1842 | 795.25
333.08 K, 10030 kPa, x2 = 0.1842 | 796.3
333.08 K, 11057 kPa, x2 = 0.1842 | 797.37
333.08 K, 12025 kPa, x2 = 0.1842 | 798.41
333.08 K, 13041 kPa, x2 = 0.1842 | 799.39
333.08 K, 14034 kPa, x2 = 0.1842 | 800.34
333.08 K, 15074 kPa, x2 = 0.1842 | 801.36
333.08 K, 16022 kPa, x2 = 0.1842 | 802.27
